In publication PMC10033419, “Blocking NS3–NS4B interaction inhibits dengue virus in non-human primates” (Nature, 2023):
Where “and” joins values, the source holds several entries; their conditions need not be identical. Equal entries are not always repeated. Where two headings read alike, the source gives them in different places.

Experiments:
[1] = test system: DENV-2 RL strain; assay: Delayed-treatment study (therapeutic setting); type: in vivo, AG129 mice; settings: for Viral Load Log10 / Viral Load Copies/ml: 30 mg/kg/day, individual mice; for Viral (load), log10 of the column before (head empty) / Viral (load; head cut off): JNJ-1802 30 mg/kg
[2] = test system: DENV-3 G5 Brazil; type: cell-based; settings: T108A in NS4B
[3] = rhesus monkey, in vivo
[4] = test system: INF-A Taiwan/1/86; assay: microbe, parasite or virus in culture; type: cell-based; settings: Influenza A virus, MDCK
[5] = test system: NS3–NS4B interaction; type: cell-based; settings: for EC50: single replicates, read-out: EC50 (NS3/4B interaction), IP
[6] = Plasma protein binding; type: in vitro ADME; settings: rhesus monkey, rhesus macaques
[7] = start treatment day 0 p.i., blood sampling day 9 p.i.
[8] = start treatment day 4 p.i., blood sampling day 3 p.i.
[9] = start treatment day 4 p.i., blood sampling day 4 p.i.
[10] = start treatment day 4 p.i., blood sampling day 5 p.i.
[11] = start treatment day 4 p.i., blood sampling day 6 p.i.
[12] = start treatment day 4 p.i., blood sampling day 7 p.i.
[13] = start treatment day 4 p.i., blood sampling day 8 p.i.
[14] = start treatment day 4 p.i., blood sampling day 9 p.i.
[15] = start treatment day 5 p.i., blood sampling day 3 p.i.
[16] = start treatment day 5 p.i., blood sampling day 4 p.i.
[17] = start treatment day 5 p.i., blood sampling day 5 p.i.
[18] = start treatment day 5 p.i., blood sampling day 6 p.i.
[19] = start treatment day 5 p.i., blood sampling day 7 p.i.
[20] = start treatment day 5 p.i., blood sampling day 8 p.i.
[21] = start treatment day 5 p.i., blood sampling day 9 p.i.
[22] = start treatment day 0 p.i., blood day 10, individual mice, 30 mg/kg
[23] = start treatment day 0 p.i., blood day 12, individual mice
[24] = start treatment day 0 p.i., blood day 14, individual mice, 30 mg/kg
[25] = start treatment day 4 p.i., blood day 10, individual mice, 30 mg/kg
[26] = start treatment day 4 p.i., blood day 12, individual mice
[27] = start treatment day 4 p.i., blood day 14, individual mice, 30 mg/kg
[28] = start treatment day 5 p.i., blood day 10, individual mice, 30 mg/kg
[29] = start treatment day 5 p.i., blood day 12, individual mice, 30 mg/kg
[30] = start treatment day 5 p.i., blood day 14, individual mice

Q: For `COc1cc(N[C@H](C(=O)c2c[nH]c3ccc(OC(F)(F)F)cc23)c2ccc(Cl)cc2OC)cc(S(C)(=O)=O)c1` [JNJ-1802], which “Viral Load Log10” value ([1]; start treatment day 0 p.i., blood sampling day 8 p.i.) is on record?
A: Its value is 3.8159 Log10 and 4.2930 Log10 and 3.5148 Log10.

Q: What about the “Viral Load Copies/ml” value [1, 7] of the same compound?
A: The value was 1.31E+03 Copies/ml and 1.64E+03 Copies/ml.

Q: And the “Viral Load Log10” value [1, 7]?
A: Its value is 3.1169 Log10.

Q: What about the “Viral Load Copies/ml” value [1, 8] of the same compound?
A: The value was 1.96E+04 Copies/ml and 8.52E+04 Copies/ml and 2.38E+05 Copies/ml and 1.40E+06 Copies/ml.

Q: What about the “Viral Load Log10” value [1, 8] of the same compound?
A: Its value is 4.2930 Log10 and 4.9304 Log10 and 5.3771 Log10 and 6.1456 Log10.

Q: What about the “Viral Load Copies/ml” value [1, 9] of the same compound?
A: The value was 5.13E+06 Copies/ml and 8.56E+06 Copies/ml and 1.09E+07 Copies/ml and 3.84E+06 Copies/ml.

Q: And the “Viral Load Copies/ml” value [1, 10]?
A: The value was 1.69E+05 Copies/ml and 1.30E+06 Copies/ml and 9.49E+05 Copies/ml and 2.98E+05 Copies/ml.

Q: What about the “Viral Load Log10” value [1, 10] of the same compound?
A: Its value is 5.8093 Log10 and 5.2288 Log10 and 6.1145 Log10 and 5.9771 Log10 and 5.4737 Log10.

Q: What about the “Viral Load Copies/ml” value [1, 11] of the same compound?
A: The value was 1.31E+03 Copies/ml and 2.07E+03 Copies/ml and 3.65E+04 Copies/ml and 6.54E+03 Copies/ml.

Q: What about the “Viral Load Log10” value [1, 11] of the same compound?
A: Its value is 4.0690 Log10 and 3.1169 Log10 and 3.3153 Log10 and 4.5619 Log10 and 3.8159 Log10.

Q: What about the “Viral Load Copies/ml” value [1, 12] of the same compound?
A: Its value is 1.31E+03 Copies/ml and 2.07E+03 Copies/ml and 4.29E+06 Copies/ml and 6.54E+03 Copies/ml.

Q: What about the “Viral Load Log10” value [1, 12] of the same compound?
A: Its value is 3.1169 Log10 and 3.3153 Log10 and 6.6320 Log10 and 3.8159 Log10.

Q: What about the “Viral Load Copies/ml” value [1, 13] of the same compound?
A: Its value is 1.31E+03 Copies/ml and 1.87E+03 Copies/ml.

Q: And the “Viral Load Copies/ml” value [1, 14]?
A: The value was 1.31E+03 Copies/ml.

Q: What about the “Viral Load Log10” value [1, 14] of the same compound?
A: The value was 3.1169 Log10.

Q: And the “Viral Load Copies/ml” value [1, 15]?
A: The value was 1.69E+06 Copies/ml and 8.64E+05 Copies/ml.

Q: And the “Viral Load Log10” value [1, 15]?
A: Its value is 6.8381 Log10 and 6.2281 Log10 and 5.9363 Log10.

Q: What about the “Viral Load Copies/ml” value [1, 16] of the same compound?
A: Its value is 1.81E+06 Copies/ml and 3.46E+06 Copies/ml and 7.59E+06 Copies/ml and 4.62E+06 Copies/ml.

Q: And the “Viral Load Copies/ml” value [1, 17]?
A: Its value is 3.99E+07 Copies/ml and 1.36E+07 Copies/ml and 2.74E+07 Copies/ml and 2.11E+07 Copies/ml and 1.62E+07 Copies/ml.

Q: What about the “Viral Load Copies/ml” value [1, 18] of the same compound?
A: Its value is 1.03E+06 Copies/ml and 1.20E+06 Copies/ml and 1.55E+06 Copies/ml and 4.56E+05 Copies/ml.

Q: What about the “Viral Load Log10” value [1, 18] of the same compound?
A: Its value is 6.0131 Log10 and 6.0795 Log10 and 6.1913 Log10 and 5.6591 Log10.

Q: What about the “Viral Load Copies/ml” value [1, 19] of the same compound?
A: Its value is 3.15E+05 Copies/ml.

Q: What about the “Viral Load Log10” value [1, 19] of the same compound?
A: Its value is 5.4984 Log10 and 4.8630 Log10.

Q: What about the “Viral Load Copies/ml” value [1, 20] of the same compound?
A: Its value is 1.31E+03 Copies/ml and 1.96E+03 Copies/ml and 5.65E+04 Copies/ml.

Q: What about the “Viral Load Log10” value [1, 20] of the same compound?
A: The value was 3.1169 Log10 and 3.2930 Log10 and 4.7518 Log10.

Q: And the “Viral Load Copies/ml” value [1, 21]?
A: The value was 1.31E+03 Copies/ml and 1.37E+04 Copies/ml.

Q: What about the “Viral Load Log10” value [1, 21] of the same compound?
A: Its value is 3.1169 Log10 and 4.1354 Log10.

Q: What about the “time until viral loads below LLOQ” value ([1]; 60 mg/kg/day b.i.d., start day 4) of the same compound?
A: Its value is no more than 48 h.

Q: What about the “Viral (load), log10 of the column before (head empty)” value (from here on “Viral (load), log10”) [1, 22] of the same compound?
A: Its value is 3.1169 and 3.2930.

Q: And the “Viral (load; head cut off)” value [1, 22]?
A: The value was 1.31E+03 and 1.96E+03.

Q: What about the “Viral (load), log10” value [1, 23] of the same compound?
A: The value was 3.1169.

Q: What about the “Viral (load; head cut off)” value [1, 23] of the same compound?
A: Its value is 1.31E+03.

Q: What about the “Viral (load), log10” value [1, 24] of the same compound?
A: Its value is 3.1169 and 3.6909.

Q: What about the “Viral (load; head cut off)” value [1, 24] of the same compound?
A: The value was 1.31E+03 and 1.57E+03 and 4.91E+03.

Q: What about the “Viral (load), log10” value [1, 25] of the same compound?
A: The value was 3.1468 and 3.2930 and 3.1169.

Q: What about the “Viral (load; head cut off)” value [1, 25] of the same compound?
A: Its value is 1.40E+03 and 1.96E+03 and 1.64E+03 and 1.31E+03.

Q: What about the “Viral (load), log10” value [1, 26] of the same compound?
A: Its value is 3.1169.

Q: And the “Viral (load; head cut off)” value [1, 26]?
A: Its value is 1.31E+03.

Q: What about the “Viral (load), log10” value [1, 27] of the same compound?
A: The value was 3.1169.

Q: What about the “Viral (load; head cut off)” value [1, 27] of the same compound?
A: Its value is 1.31E+03 and 1.57E+03.

Q: And the “Viral (load), log10” value [1, 28]?
A: The value was 4.0084 and 3.1169.

Q: And the “Viral (load; head cut off)” value [1, 28]?
A: The value was 1.02E+04 and 1.31E+03.

Q: What about the “Viral (load), log10” value [1, 29] of the same compound?
A: The value was 3.1169 and 4.0709.

Q: What about the “Viral (load; head cut off)” value [1, 29] of the same compound?
A: Its value is 1.31E+03 and 1.18E+04.

Q: And the “Viral (load), log10” value [1, 30]?
A: The value was 3.1169.

Q: What about the “Viral (load; head cut off)” value [1, 30] of the same compound?
A: The value was 1.31E+03.

Q: And the EC50 [2]?
A: The EC50 was 1.8 ± 1.4 nM.

Q: And the EC90 [2]?
A: Its EC90 is 3.8 ± 1.1 nM.

Q: What about the haematological analysis [3] of the same compound?
A: The haematological analysis was “did not show any indication for a treatment-related effect”.

Q: And the EC50 [4]?
A: Its EC50 is greater than 2600 nM.

Q: What about the EC50 ([4]; read-out: EC50, Mean) of the same compound?
A: Its EC50 is greater than 25000 nM.

Q: What about the EC90 ([4]; read-out: EC90, Mean) of the same compound?
A: Its EC90 is greater than 25000 nM.

Q: And the EC50 ([5]; T108I)?
A: The EC50 was […].

Q: And the EC50 ([5]; V91A)?
A: Its EC50 is […].

Q: And the EC50 ([5]; WT)?
A: Its EC50 is […].

Q: What about the fraction unbound [6] of the same compound?
A: Its fraction unbound is less than 0.001.
